Data published in the supplement of paper PMC10307832.

What was measured:
Assay in all cases: relative viability (nuclei count vs DMSO), 5 days (fraction); higher = more cells survive
LK-2 = tested on: LK-2
Procedure, shortened: (§1)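 Medians of duplicate plates are given as relative viability. That measure is the nuclei count in treated wells divided by the count in vehicle wells. Counts were taken on 4× images of lung cancer cell lines in 1536-well plates, 5 days after pin-tool dosing the day after seeding with one drug alone or a fixed anchor-drug dose plus five library-drug doses (not always all listed) in √10 steps.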

NCI-H727 = tested on: NCI-H727
Procedure, shortened: as §1

BEN = tested on: BEN
Procedure, shortened: as §1

NCI-H520 = tested on: NCI-H520
Procedure, shortened: as §1

NCI-H322M = tested on: NCI-H322M
Procedure, shortened: as §1

HCC-15 = tested on: HCC-15
Procedure, shortened: as §1

EKVX = tested on: EKVX
Procedure, shortened: as §1

ABC-1 = tested on: ABC-1
Procedure, shortened: as §1

HCC-44 = tested on: HCC-44
Procedure, shortened: as §1

EMC-BAC-2 = tested on: EMC-BAC-2
Procedure, shortened: as §1

CAL-12T = tested on: CAL-12T
Procedure, shortened: as §1

NCI-H1651 = tested on: NCI-H1651
Procedure, shortened: as §1

NCI-H2023 = tested on: NCI-H2023
Procedure, shortened: as §1

NCI-H460 = tested on: NCI-H460
Procedure, shortened: as §1

NCI-H1563 = tested on: NCI-H1563
Procedure, shortened: as §1

NCI-H358 = tested on: NCI-H358
Procedure, shortened: as §1

201T = tested on: 201T
Procedure, shortened: as §1

PC-3 [JPC-3] = tested on: PC-3 [JPC-3]
Procedure, shortened: as §1

COR-L 105 = tested on: COR-L 105
Procedure, shortened: as §1

NCI-H838 = tested on: NCI-H838
Procedure, shortened: as §1

LU99A = tested on: LU99A
Procedure, shortened: as §1

## CCNC(=O)c1noc(-c2cc(C(C)C)c(O)cc2O)c1-c1ccc(CN2CCOCC2)cc1 [Luminespib] + CS(=O)(=O)CCNCc1ccc(-c2ccc3ncnc(Nc4ccc(OCc5cccc(F)c5)c(Cl)c4)c3c2)o1 [Lapatinib] (partner 2 µM)
LK-2; first compound 0.002 µM
  relative viability: 0.849
LK-2; first compound 0.006325 µM
  relative viability: 0.941
LK-2; first compound 0.02 µM
  relative viability: 0.545
LK-2; first compound 0.06325 µM
  relative viability: 0.252
LK-2; first compound 0.2 µM
  relative viability: 0.204
NCI-H727; first compound 0.002 µM
  relative viability: 0.82
NCI-H727; first compound 0.006325 µM
  relative viability: 0.768
NCI-H727; first compound 0.02 µM
  relative viability: 0.435
NCI-H727; first compound 0.06325 µM
  relative viability: 0.227
NCI-H727; first compound 0.2 µM
  relative viability: 0.192
BEN; first compound 0.002 µM
  relative viability: 0.717
BEN; first compound 0.006325 µM
  relative viability: 0.536
BEN; first compound 0.02 µM
  relative viability: 0.363
BEN; first compound 0.06325 µM
  relative viability: 0.211
BEN; first compound 0.2 µM
  relative viability: 0.237
NCI-H520; first compound 0.002 µM
  relative viability: 0.848
NCI-H520; first compound 0.006325 µM
  relative viability: 0.792
NCI-H520; first compound 0.02 µM
  relative viability: 0.353
NCI-H520; first compound 0.06325 µM
  relative viability: 0.11
NCI-H520; first compound 0.2 µM
  relative viability: 0.138
NCI-H322M; first compound 0.002 µM
  relative viability: 0.556
NCI-H322M; first compound 0.006325 µM
  relative viability: 0.573
NCI-H322M; first compound 0.02 µM
  relative viability: 0.503
NCI-H322M; first compound 0.06325 µM
  relative viability: 0.708
NCI-H322M; first compound 0.2 µM
  relative viability: 0.373
HCC-15; first compound 0.002 µM
  relative viability: 0.812
HCC-15; first compound 0.006325 µM
  relative viability: 0.783
HCC-15; first compound 0.02 µM
  relative viability: 0.883
HCC-15; first compound 0.06325 µM
  relative viability: 0.308
HCC-15; first compound 0.2 µM
  relative viability: 0.136
EKVX; first compound 0.002 µM
  relative viability: 0.183
EKVX; first compound 0.006325 µM
  relative viability: 0.228
EKVX; first compound 0.02 µM
  relative viability: 0.175
EKVX; first compound 0.06325 µM
  relative viability: 0.158
EKVX; first compound 0.2 µM
  relative viability: 0.0973
ABC-1; first compound 0.002 µM
  relative viability: 1.33
ABC-1; first compound 0.006325 µM
  relative viability: 0.964
ABC-1; first compound 0.02 µM
  relative viability: 0.945
ABC-1; first compound 0.06325 µM
  relative viability: 1.14
ABC-1; first compound 0.2 µM
  relative viability: 0.517
HCC-44; first compound 0.002 µM
  relative viability: 0.975
HCC-44; first compound 0.006325 µM
  relative viability: 1.08
HCC-44; first compound 0.02 µM
  relative viability: 1.18
HCC-44; first compound 0.06325 µM
  relative viability: 0.161
HCC-44; first compound 0.2 µM
  relative viability: 0.159
EMC-BAC-2; first compound 0.002 µM
  relative viability: 0.942
EMC-BAC-2; first compound 0.006325 µM
  relative viability: 0.84
EMC-BAC-2; first compound 0.02 µM
  relative viability: 0.597
EMC-BAC-2; first compound 0.06325 µM
  relative viability: 0.853
EMC-BAC-2; first compound 0.2 µM
  relative viability: 0.781
CAL-12T; first compound 0.002 µM
  relative viability: 0.596
CAL-12T; first compound 0.006325 µM
  relative viability: 0.644
CAL-12T; first compound 0.02 µM
  relative viability: 0.309
CAL-12T; first compound 0.06325 µM
  relative viability: 0.183
CAL-12T; first compound 0.2 µM
  relative viability: 0.158
NCI-H1651; first compound 0.002 µM
  relative viability: 0.902
NCI-H1651; first compound 0.006325 µM
  relative viability: 0.803
NCI-H1651; first compound 0.02 µM
  relative viability: 0.561
NCI-H1651; first compound 0.06325 µM
  relative viability: 0.193
NCI-H1651; first compound 0.2 µM
  relative viability: 0.161
NCI-H2023; first compound 0.002 µM
  relative viability: 0.866
NCI-H2023; first compound 0.006325 µM
  relative viability: 0.787
NCI-H2023; first compound 0.02 µM
  relative viability: 0.124
NCI-H2023; first compound 0.06325 µM
  relative viability: 0.0702
NCI-H2023; first compound 0.2 µM
  relative viability: 0.0724
NCI-H460; first compound 0.002 µM
  relative viability: 1.11
NCI-H460; first compound 0.006325 µM
  relative viability: 0.871
NCI-H460; first compound 0.02 µM
  relative viability: 0.0465
NCI-H460; first compound 0.06325 µM
  relative viability: 0.0095
NCI-H460; first compound 0.2 µM
  relative viability: 0.0127
NCI-H1563; first compound 0.002 µM
  relative viability: 0.963
NCI-H1563; first compound 0.006325 µM
  relative viability: 0.818
NCI-H1563; first compound 0.02 µM
  relative viability: 0.616
NCI-H1563; first compound 0.06325 µM
  relative viability: 0.474
NCI-H1563; first compound 0.2 µM
  relative viability: 0.528
NCI-H358; first compound 0.002 µM
  relative viability: 0.503
NCI-H358; first compound 0.006325 µM
  relative viability: 0.446
NCI-H358; first compound 0.02 µM
  relative viability: 0.354
NCI-H358; first compound 0.06325 µM
  relative viability: 0.132
NCI-H358; first compound 0.2 µM
  relative viability: 0.14
201T; first compound 0.002 µM
  relative viability: 1.03
201T; first compound 0.006325 µM
  relative viability: 0.961
201T; first compound 0.02 µM
  relative viability: 0.878
201T; first compound 0.06325 µM
  relative viability: 1.02
201T; first compound 0.2 µM
  relative viability: 0.986
PC-3 [JPC-3]; first compound 0.002 µM
  relative viability: 0.486
PC-3 [JPC-3]; first compound 0.006325 µM
  relative viability: 0.471
PC-3 [JPC-3]; first compound 0.02 µM
  relative viability: 0.404
PC-3 [JPC-3]; first compound 0.06325 µM
  relative viability: 0.488
PC-3 [JPC-3]; first compound 0.2 µM
  relative viability: 0.338
COR-L 105; first compound 0.002 µM
  relative viability: 0.363
COR-L 105; first compound 0.006325 µM
  relative viability: 0.354
COR-L 105; first compound 0.02 µM
  relative viability: 0.283
COR-L 105; first compound 0.06325 µM
  relative viability: 0.266
COR-L 105; first compound 0.2 µM
  relative viability: 0.302
NCI-H838; first compound 0.002 µM
  relative viability: 1.05
NCI-H838; first compound 0.006325 µM
  relative viability: 0.911
NCI-H838; first compound 0.02 µM
  relative viability: 0.328
NCI-H838; first compound 0.06325 µM
  relative viability: 0.103
NCI-H838; first compound 0.2 µM
  relative viability: 0.0976
LU99A; first compound 0.002 µM
  relative viability: 1.11
LU99A; first compound 0.006325 µM
  relative viability: 0.939
LU99A; first compound 0.02 µM
  relative viability: 0.518
LU99A; first compound 0.06325 µM
  relative viability: 0.127
LU99A; first compound 0.2 µM
  relative viability: 0.11
